Test system: Rhopalosiphum padi
Assay: Antifeedant activity against third-instar larvae of Rhopalosiphum padi assessed as repellency index after 24 hr by feeding choice assay
Format: functional
Design: concentration or dose not given beside the values

First: O=C1COc2ccccc2N1O
Second: O=C1C(O)Oc2ccccc2N1O (configuration not stated)
The Activity of the first is lower: 26% for the first, 92.3% for the second.

Going from `COc1ccc2c(c1)OC(O)C(=O)N2O` (configuration not stated) to `COc1ccc2c(c1)OC(OC)C(=O)N2O` (configuration not stated), the Activity falls from 74% to 33.3%.

Going from `COc1ccc2c(c1)OCC(=O)N2O` to `COC(=O)c1ccc2c(c1)OCC(=O)N2O` [7-MeOCO-D-DIBOA], the Activity falls from 52% to 32%.

First: O=C(O)c1ccc2c(c1)OCC(=O)N2O
Second: COc1ccc2c(c1)OCC(=O)N2
The Activity of the first is lower: 2.5% for the first, 18% for the second.

Compared with `COC1Oc2ccccc2N(O)C1=O` (configuration not stated), `O=C1Nc2ccccc2OC1O` (configuration not stated) is higher in Activity: 0% for the first, 38% for the second.

Going from `COc1ccc2c(c1)OC(O)C(=O)N2` (configuration not stated) to `O=C1COc2ccccc2N1`, the Activity falls from 35% to 17%.
